# Laboratory results from patent US9957270B2, “Fused pyrimidine-based hydroxamate derivatives” (Agency for Science, Technology and Research, priority 2014, dated 2018).
# Key:
# [1] = molecular target: T1, PI3Kα (Homo sapiens, UniProt P42336); assay: Kinase enzyme assay (ADP-Glo), PI3Kα; format: biochemical; conditions: read-out: In Vitro Enzymatic IC50 PI3Kα
# T1 construct: purchased Invitrogen, or BPS Bioscience Inc., or SignalChem PV4788 / 40620 / P27-18H
# [2] = Microsomal stability, human liver microsomes; conditions: human, microsomes, 0.75 h, 5 μM, pH 7.4
# Procedure: (§1) GIBIO pooled human liver microsomes (HLM) (Cat # HMMCPL), mouse liver microsomes (MLM) (Cat # BCMCPL), and rat liver microsomes (RLM) (Cat # RTMCPL) were purchased from Life Technologies. […] Samples are incubated for 30, 45, or 60 min. Reaction is terminated with ice-cold acetonitrile 0.3% formic acid. Samples are subsequently centrifuged at 4° C. for 15 min at 20,000×g. The supernatant is analysed by LC-MS.
# (§2) Compound in vitro metabolic stability was assayed using liver microsomes (LM) at 0.5 mg/mL of proteins, incubated for 30 min (mouse, MLM), 45 min (rat, RLM), 30 or 45 min (human, HLM). % of remaining parent compound was measured using LC-MS.
# [3] = Microsomal stability, mouse liver microsomes; conditions: mouse, microsomes, 0.5 h, 5 μM, pH 7.4
# Procedure: as §1, §2
# [4] = Microsomal stability, rat liver microsomes; conditions: rat, microsomes, 0.75 h, 5 μM, pH 7.4
# Procedure: as §1, §2
# [5] = test system: COLO 205; assay: cells; conditions: Homo sapiens, COLO 205, 72 h, read-out: In Vitro Cellular IC50 COLO 205
# [6] = test system: HCT 116; assay: cells; conditions: Homo sapiens, HCT-116, 72 h, read-out: In Vitro Cellular IC50 HCT 116
# [7] = test system: MV-4-11; assay: cells; conditions: Homo sapiens, MV4-11, 72 h, read-out: In Vitro Cellular IC50 MV-4-11
# [8] = molecular target: HDAC1 (Homo sapiens, UniProt Q13547); assay: HDAC enzyme assay, recombinant HDAC1
# HDAC1, sequence (Q13547 whole entry): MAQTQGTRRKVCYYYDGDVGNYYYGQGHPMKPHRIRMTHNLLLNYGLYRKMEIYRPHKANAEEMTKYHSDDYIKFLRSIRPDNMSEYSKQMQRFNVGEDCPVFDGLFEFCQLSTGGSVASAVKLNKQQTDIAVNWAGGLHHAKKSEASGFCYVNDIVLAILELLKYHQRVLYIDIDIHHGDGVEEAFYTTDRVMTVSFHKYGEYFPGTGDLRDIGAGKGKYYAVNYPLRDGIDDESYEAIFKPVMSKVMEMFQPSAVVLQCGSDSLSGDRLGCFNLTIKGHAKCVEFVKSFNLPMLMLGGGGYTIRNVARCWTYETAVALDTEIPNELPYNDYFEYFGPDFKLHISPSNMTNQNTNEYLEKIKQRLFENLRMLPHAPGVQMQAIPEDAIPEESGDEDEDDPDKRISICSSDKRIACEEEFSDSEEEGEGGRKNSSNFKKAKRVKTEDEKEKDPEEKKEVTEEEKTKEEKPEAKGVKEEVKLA
# [9] = molecular target: T2, HDAC6 (Homo sapiens, UniProt Q9UBN7); assay: HDAC enzyme assay, recombinant HDAC6
# T2 sequence (Q9UBN7 1-1215): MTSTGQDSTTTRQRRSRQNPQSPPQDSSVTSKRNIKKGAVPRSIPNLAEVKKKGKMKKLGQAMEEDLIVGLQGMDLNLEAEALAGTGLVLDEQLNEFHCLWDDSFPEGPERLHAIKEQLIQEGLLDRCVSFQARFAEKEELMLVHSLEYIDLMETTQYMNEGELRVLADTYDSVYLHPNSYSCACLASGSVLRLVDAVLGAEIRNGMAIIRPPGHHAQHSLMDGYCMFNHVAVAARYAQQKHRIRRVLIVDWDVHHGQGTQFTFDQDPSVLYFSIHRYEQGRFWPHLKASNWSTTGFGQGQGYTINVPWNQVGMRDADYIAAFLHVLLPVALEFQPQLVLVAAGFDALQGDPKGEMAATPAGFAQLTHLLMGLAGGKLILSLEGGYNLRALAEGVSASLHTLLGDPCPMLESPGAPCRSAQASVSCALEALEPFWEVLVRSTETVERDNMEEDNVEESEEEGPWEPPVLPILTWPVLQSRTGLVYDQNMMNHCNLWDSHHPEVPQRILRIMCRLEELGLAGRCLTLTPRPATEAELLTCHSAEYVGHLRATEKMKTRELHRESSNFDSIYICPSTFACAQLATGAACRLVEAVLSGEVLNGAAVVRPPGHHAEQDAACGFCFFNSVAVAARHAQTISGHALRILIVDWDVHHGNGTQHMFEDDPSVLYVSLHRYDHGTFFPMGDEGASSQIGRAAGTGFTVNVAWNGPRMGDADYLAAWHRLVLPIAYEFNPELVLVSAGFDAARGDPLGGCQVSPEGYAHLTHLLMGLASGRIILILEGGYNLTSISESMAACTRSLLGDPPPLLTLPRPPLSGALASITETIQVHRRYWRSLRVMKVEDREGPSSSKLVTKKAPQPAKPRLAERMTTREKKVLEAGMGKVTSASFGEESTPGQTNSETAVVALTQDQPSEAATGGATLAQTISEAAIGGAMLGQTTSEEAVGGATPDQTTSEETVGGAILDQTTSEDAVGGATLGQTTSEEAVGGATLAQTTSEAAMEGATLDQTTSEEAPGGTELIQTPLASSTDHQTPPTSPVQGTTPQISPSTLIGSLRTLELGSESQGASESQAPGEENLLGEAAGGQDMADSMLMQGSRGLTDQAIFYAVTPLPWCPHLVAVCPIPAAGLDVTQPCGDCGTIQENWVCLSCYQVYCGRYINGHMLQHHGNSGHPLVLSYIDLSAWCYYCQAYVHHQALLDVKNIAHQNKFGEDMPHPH
# [10] = molecular target: HDAC (HeLa nuclear extracts); assay: HDAC enzyme assay, HeLa nuclear extracts; conditions: read-out: In Vitro Enzymatic IC50 HDAC (HeLa)
# [11] = test system: MCF7; assay: Anti-proliferative assay (cellular IC50), MCF7; conditions: Homo sapiens, MCF7, 72 h, read-out: In Vitro Cellular IC50 MCF7
# [12] = test system: PC-3; assay: Anti-proliferative assay (cellular IC50), PC-3; conditions: Homo sapiens, PC-3, 72 h, read-out: In Vitro Cellular IC50 PC-3
# [13] = test system: K-562; assay: Anti-proliferative assay (cellular IC50), K-562; conditions: Homo sapiens, K562, 72 h, read-out: In Vitro Cellular IC50 K-562
# [14] = test system: MOLT-4; assay: Anti-proliferative assay (cellular IC50), MOLT-4; conditions: Homo sapiens, MOLT-4, 72 h, read-out: In Vitro Cellular IC50 MOLT-4
# [15] = molecular target: T3, p110α(E545K)/p85α (Homo sapiens, UniProt P42336, E545K); assay: Kinase enzyme assay (ADP-Glo), PI3Kα (E545K); format: biochemical; conditions: read-out: In Vitro Enzymatic IC50 PI3Kα (E545K)
# T3 construct: purchased SignalChem P27-15H
# T3 sequence (P42336 whole entry E545K): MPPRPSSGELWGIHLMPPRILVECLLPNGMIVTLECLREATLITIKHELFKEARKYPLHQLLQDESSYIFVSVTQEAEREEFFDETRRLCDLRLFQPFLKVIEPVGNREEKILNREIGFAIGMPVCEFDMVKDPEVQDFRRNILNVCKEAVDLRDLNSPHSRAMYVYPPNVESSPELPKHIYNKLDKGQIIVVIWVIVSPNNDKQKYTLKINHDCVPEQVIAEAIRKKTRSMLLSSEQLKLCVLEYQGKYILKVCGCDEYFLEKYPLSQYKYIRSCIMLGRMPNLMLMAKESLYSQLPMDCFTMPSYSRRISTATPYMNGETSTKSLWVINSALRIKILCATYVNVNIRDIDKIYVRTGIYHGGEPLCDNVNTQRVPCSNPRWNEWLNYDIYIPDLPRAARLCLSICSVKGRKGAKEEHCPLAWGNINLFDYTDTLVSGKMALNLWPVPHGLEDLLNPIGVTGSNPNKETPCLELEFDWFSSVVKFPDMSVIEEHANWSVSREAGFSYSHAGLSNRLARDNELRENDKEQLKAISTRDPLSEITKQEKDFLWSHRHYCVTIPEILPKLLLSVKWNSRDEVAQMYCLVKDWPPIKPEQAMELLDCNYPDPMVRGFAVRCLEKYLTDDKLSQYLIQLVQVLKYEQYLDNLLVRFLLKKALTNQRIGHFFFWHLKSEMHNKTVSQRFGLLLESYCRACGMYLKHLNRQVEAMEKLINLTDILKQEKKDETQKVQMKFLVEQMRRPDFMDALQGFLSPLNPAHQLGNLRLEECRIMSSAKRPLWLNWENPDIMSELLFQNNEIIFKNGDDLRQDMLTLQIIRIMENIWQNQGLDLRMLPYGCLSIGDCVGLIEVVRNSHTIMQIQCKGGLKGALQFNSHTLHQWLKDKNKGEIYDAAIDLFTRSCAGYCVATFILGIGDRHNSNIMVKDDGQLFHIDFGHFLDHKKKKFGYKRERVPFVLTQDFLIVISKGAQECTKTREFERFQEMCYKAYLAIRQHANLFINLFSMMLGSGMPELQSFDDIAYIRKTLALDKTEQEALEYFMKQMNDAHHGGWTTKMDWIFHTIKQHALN
# T3 sequence (P27986 whole entry partner): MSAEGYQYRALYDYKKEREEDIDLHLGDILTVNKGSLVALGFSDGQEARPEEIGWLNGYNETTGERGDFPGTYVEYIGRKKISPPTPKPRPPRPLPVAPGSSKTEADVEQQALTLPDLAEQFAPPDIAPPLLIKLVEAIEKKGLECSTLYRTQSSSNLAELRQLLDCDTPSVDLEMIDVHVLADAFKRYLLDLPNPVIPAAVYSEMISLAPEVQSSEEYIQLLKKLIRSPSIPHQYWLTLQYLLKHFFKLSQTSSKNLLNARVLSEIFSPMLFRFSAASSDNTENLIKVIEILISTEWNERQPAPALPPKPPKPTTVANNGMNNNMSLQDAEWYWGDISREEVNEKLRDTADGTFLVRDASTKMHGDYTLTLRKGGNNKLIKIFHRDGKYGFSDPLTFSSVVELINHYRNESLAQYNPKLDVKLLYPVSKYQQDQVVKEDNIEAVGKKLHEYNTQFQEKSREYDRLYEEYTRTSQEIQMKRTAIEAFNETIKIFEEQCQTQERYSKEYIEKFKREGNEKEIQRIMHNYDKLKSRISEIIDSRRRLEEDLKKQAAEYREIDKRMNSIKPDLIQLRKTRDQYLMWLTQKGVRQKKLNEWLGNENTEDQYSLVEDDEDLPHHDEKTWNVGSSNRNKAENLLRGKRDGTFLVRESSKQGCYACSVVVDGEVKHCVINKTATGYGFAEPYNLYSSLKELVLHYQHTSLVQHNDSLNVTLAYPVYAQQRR
# [16] = molecular target: T4, p110α(H1047R)/p85α (Homo sapiens, UniProt P42336, H1047R); assay: Kinase enzyme assay (ADP-Glo), PI3Kα (H1047R); format: biochemical; conditions: read-out: In Vitro Enzymatic IC50 PI3Kα (H1047R)
# T4 construct: purchased BPS 40641
# T4 sequence (P42336 whole entry H1047R): as the sequence (P42336 whole entry E545K) above, with K545E, H1047R counted along it
# T4 sequence (P27986 whole entry partner): as the sequence (P27986 whole entry partner) above
# [17] = molecular target: T5, PI3Kβ (Homo sapiens, UniProt P42338); assay: Kinase enzyme assay (ADP-Glo), PI3Kβ; format: biochemical; conditions: read-out: In Vitro Enzymatic IC50 PI3Kβ
# T5 construct: purchased SignalChem or BPS P28-10H / 40622
# T5 sequence (P42338 whole entry): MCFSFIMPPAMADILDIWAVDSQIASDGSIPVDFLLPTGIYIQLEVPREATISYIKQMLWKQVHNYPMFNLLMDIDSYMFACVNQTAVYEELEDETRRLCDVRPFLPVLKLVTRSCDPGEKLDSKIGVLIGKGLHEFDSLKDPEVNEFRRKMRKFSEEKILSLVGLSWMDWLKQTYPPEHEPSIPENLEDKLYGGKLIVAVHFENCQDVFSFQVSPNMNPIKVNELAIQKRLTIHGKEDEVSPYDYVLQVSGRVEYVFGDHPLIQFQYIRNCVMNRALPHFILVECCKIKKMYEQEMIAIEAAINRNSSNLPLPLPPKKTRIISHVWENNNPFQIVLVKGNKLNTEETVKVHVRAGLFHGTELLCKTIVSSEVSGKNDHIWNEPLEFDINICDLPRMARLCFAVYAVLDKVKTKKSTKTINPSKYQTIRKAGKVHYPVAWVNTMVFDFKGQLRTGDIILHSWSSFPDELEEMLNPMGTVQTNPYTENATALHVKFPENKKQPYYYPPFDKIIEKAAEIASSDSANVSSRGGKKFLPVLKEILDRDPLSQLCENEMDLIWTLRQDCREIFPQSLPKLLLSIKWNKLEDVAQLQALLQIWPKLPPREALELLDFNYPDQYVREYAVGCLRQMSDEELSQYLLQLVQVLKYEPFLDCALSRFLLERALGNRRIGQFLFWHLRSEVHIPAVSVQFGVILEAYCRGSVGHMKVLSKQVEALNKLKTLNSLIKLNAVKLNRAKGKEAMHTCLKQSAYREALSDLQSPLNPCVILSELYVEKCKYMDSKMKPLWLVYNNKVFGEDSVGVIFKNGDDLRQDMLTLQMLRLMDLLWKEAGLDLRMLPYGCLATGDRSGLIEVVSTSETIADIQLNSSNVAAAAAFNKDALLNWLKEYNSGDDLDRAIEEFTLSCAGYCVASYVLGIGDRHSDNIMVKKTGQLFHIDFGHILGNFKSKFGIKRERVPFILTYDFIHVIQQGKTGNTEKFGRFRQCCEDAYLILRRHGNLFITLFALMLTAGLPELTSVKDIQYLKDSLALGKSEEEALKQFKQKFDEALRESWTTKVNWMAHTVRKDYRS
# T5 sequence (P27986 whole entry partner): as the sequence (P27986 whole entry partner) above
# T1 sequence (P42336 whole entry): as the sequence (P42336 whole entry E545K) above, with K545E counted along it
# T1 sequence (P27986 whole entry partner): as the sequence (P27986 whole entry partner) above
SMILES,IC50 [1] [µM],"Microsomal Stability HLM, % of remaining parent compound [2] [%]","Microsomal Stability MLM, % of remaining parent compound [3] [%]","Microsomal Stability RLM, % of remaining parent compound [4] [%]",IC50 [5] [µM],IC50 [6] [µM],IC50 [7] [µM],IC50 [8] [µM],IC50 [9] [µM],IC50 [10] [µM],IC50 [11] [µM],IC50 [12] [µM],IC50 [13] [µM],IC50 [14] [µM],IC50 [15] [µM],IC50 [16] [µM],IC50 [17] [µM]
CC(C)n1c(NCCCCCC(=O)NO)nc2c(-c3cnc(N)nc3)nc(N3CCOCC3)nc21 [compound 6],0.01 to 0.1,88,89,88,2 to 10,0.5 to 2,0.5 to 2,0.01 to 0.1,0.1 to 1,0.1 to 1,2 to 10,2 to 10,2 to 10,2 to 10,–,–,–
"CC(C)n1cnc2c(N3CCOCC3)nc(-c3ccc(OCCCCCCC(=O)NO)cc3)nc21 [compound 81, N-hydroxy-7-(4-(9-isopropyl-6-morpholino-9H-purin-2-yl)phenoxy)heptanamide]",0.01 to 0.1,–,–,–,–,–,–,< 0.01,< 0.01,< 0.01,–,–,–,–,0.01 to 0.1,0.01 to 0.1,0.1 to 1
"CC(C)n1cnc2c(-c3cccc(OCCCC(=O)NO)c3)nc(N3CCCC3)nc21 [compound 29, N-hydroxy-4-(3-(9-isopropyl-2-(pyrrolidin-1-yl)-9H-purin-6-yl)phenoxy)butanamide]",–,97,75,9,0.5 to 2,< 0.5,< 0.5,0.01 to 0.1,–,0.1 to 1,0.5 to 2,0.5 to 2,0.5 to 2,< 0.5,–,–,–
"CCn1c(CN(C)Cc2ccc(/C=C/C(=O)NO)cc2)nc2c(N3CCOCC3)nc(-c3cnc(N)nc3)nc21 [compound 89, (E)-3-(4-((((2-(2-aminopyrimidin-5-yl)-9-ethyl-6-morpholino-9H-purin-8-yl)methyl)(methyl)amino)methyl)phenyl)-N-hydroxyacrylamide]",0.01 to 0.1,87,70,70,2 to 10,–,–,0.1 to 1,–,0.1 to 1,0.5 to 2,2 to 10,2 to 10,0.5 to 2,–,–,–
"CC(C)n1cnc2c(-c3cnc(N)nc3)nc(NCCCCCC(=O)NO)nc21 [compound 38, 6-((6-(2-aminopyrimidin-5-yl)-9-isopropyl-9H-purin-2-yl)amino)-N-hydroxyhexanamide]",0.01 to 0.1,–,–,–,–,–,–,< 0.01,< 0.01,< 0.01,–,–,–,–,0.01 to 0.1,0.01 to 0.1,0.1 to 1
